Measured values taken from patent publication US6080542A, “Plant peptide transport gene” (priority 1997, dated 2000).

Experiments:
ATPTR2Ap = test: Uptake of L-leucyl-L-[3H]leucine and competition, PB1X-9B[pPTF4]; conditions: PB1X-9B[pPTF4]; pH 5.5; dileucine and leucine at 100-fold
Experimental: The kinetics of ATPTR2A-mediated transport of peptides in yeast was evaluated by transforming pPTF4 into the S. cerevisiae peptide transport mutant, PB1X-9B and measuring the uptake of tritiated Leu-Leu dipeptide.
(§1) L-leucyl-L [^3 H]leucine trifluoroacetic acid (TFA) was synthesized by standard solution phase techniques (Naider, F. et al., J. Biol. Chem. 249:9-20 (1974)). Uptake of L-leucyl-L-[H]leucine was performed as by Island, M. D. et al (J. Bacteriol. 169:2132-2136 (1987)), with the following modifications. Cells were grown to late log phase (26×10^7 cells/ml) overnight in SC with 2% glucose, 1 mg/ml allantoin plus amino acids to supplement auxotrophic markers. To induce peptide transport. 5-15 ml from this culture was added to 100 ml fresh medium such that the density was 3.0×10^6 cells/ml. This culture was allowed to grow (approx. 2 hrs.) to a density of 6.0×10^6 cells/ml and then harvested by centrifugation. The pelleted cells were washed twice with 10 ml cold dH2 O and suspended in cold 2% glucose to a final concentration of 2×10^8 cells/ml and incubated at 30° C. for 15 min. 500 μl of cells were then added to an equal volume of reaction mixture (30° C.) and incubated at 30°-C. At 20, 40, 60, 90, and 120 sec. intervals, 190 μl portions were removed, filtered over filters (pore size, 0.45 μm; GN-6; Gelman Sciences, Inc., Ann Arbor, Mich.) and washed 2 times with 5 ml cold, sterile dH2 O and once with 5 ml dH2 O at room temperatures. Filters were placed in scintillation vials with 5 ml of Budget-Solve scintillation cocktail (Research Products International Corp., Mount Prospect, Ill.) and counted (liquid scintillation counter; LS-7000; Beckman Instruments, Inc., Fullerton, Calif.). The final concentration of the components in the uptake assay was 1% glucose, 40 mM sodium citrate-potassium phosphate buffer (pH 5.5), and 1.5×105 M L-leucyl-L-[^3 H]leucine (specific activity, 10 mCi/mmole). Uptake is expressed as nanomoles per mg dry weight.

[1] = biological target: T1, yeast peptide transport system (Saccharomyces cerevisiae, UniProt P32901); test: Competition for L-leucyl-L-[3H]leucine uptake, PB1X-9B[pJP9]; format: cell-based; conditions: pH 5.5
T1 construct: The ptr2 gene encodes a 602 amino acid hydrophobic polypeptide with 12 putative hydrophobic segments; expressed in transfected cells; host or cells: S. cerevisiae peptide transport mutant PB1X-9B (ptr2-2) transformed with pJP9
T1 sequence (P32901 1-601): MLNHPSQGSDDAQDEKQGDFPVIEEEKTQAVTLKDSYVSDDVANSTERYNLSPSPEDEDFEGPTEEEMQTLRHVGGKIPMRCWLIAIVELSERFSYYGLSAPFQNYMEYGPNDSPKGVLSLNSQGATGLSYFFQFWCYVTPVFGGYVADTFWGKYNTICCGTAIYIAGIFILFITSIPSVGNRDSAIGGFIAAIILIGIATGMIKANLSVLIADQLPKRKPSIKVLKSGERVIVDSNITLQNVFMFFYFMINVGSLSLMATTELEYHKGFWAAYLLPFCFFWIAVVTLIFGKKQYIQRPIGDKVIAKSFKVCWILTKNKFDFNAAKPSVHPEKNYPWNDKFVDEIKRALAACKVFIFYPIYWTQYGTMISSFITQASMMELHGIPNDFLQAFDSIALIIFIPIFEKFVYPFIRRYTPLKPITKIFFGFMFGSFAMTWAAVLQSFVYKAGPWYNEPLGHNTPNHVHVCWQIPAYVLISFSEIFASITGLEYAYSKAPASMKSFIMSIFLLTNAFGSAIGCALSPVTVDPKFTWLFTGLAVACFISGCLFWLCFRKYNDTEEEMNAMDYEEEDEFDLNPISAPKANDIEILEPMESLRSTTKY
Experimental: as §1

PB1X-9B (pPTF4) = test: Growth on peptides, mutant transformed with plant gene ATPTR2A; format: cell-based, Saccharomyces cerevisiae
Experimental: (§2) In addition, untransformed PB1X-9B, PB1X-9B transformed with plasmid pJP9 encoding the above-described yeast peptide transport gene, PB1X-2AΔ and PB1X-2A, the ptr2^+ parental strain to PB1X-2AΔ strain, were also assayed. Each strain was grown overnight in SC media plus uracil (non-transformed) or minus uracil (transformed) plus amino acids to stationary phase and harvested by centrifugation. Cells were then washed twice with sterile dH2 O and resuspended at 5×10^6 cells/ml. 5 μl of each suspension was applied as a small spot to a 2 ml volume of solid media in a 24 well plate. All peptides were suspended in sterile, deionized water and added to an equal volume of SC medium plus the appropriate amino acids and uracil when required. The medium for each assay thus consisted of SC medium plus or minus uracil supplemented with 80 μM of a specific peptide and auxotrophic requirements minus the amino acid components of the added peptide. The plates were incubated at 30° C. for 72 hrs. and then scored for growth.

PB1X-9B (pJP9) = test: Growth on peptides, mutant transformed with yeast peptide transport gene; format: cell-based, Saccharomyces cerevisiae
Experimental: as §2

PB1X-2A = test: Growth on peptides, parental strain; format: cell-based, Saccharomyces cerevisiae; conditions: data not shown
Experimental: as §2, with “Thus, the peptide transport mutant PB1X-9B and deletion strain PB1X-2AΔ transformed with plasmids pPTF4 (ATPTR2A) or pDTF1 (ATPTR2B) were grown on various peptides to assess the specificity of the plant peptide transporter. In” for “In”

PB1X-9B = test: Growth on peptides as amino acid source, peptide transport mutant; format: cell-based, Saccharomyces cerevisiae; conditions: PBIX-9B; 80 μM peptide in SC medium, 30° C., 72 hrs
Experimental: as §2

ATPTR2Ap, sequence (as listed by the source): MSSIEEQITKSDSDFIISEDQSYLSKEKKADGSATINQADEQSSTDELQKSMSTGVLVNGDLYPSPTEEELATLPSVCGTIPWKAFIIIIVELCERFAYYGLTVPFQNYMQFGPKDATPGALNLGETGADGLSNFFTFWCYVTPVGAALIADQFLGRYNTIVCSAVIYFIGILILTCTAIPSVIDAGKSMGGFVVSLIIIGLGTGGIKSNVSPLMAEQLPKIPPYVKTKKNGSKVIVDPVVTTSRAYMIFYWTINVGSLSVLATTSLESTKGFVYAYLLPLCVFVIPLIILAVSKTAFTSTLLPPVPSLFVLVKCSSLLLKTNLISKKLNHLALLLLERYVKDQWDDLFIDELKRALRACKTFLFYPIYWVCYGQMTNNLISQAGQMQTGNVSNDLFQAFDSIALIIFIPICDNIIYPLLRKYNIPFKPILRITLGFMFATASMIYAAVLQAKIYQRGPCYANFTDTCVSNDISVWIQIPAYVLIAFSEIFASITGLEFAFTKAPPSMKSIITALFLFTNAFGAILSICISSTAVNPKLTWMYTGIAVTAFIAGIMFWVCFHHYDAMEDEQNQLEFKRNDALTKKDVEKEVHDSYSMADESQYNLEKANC

Met-Met-Leu: tripeptide (MML)
competition for uptake of [3H]-dileucine (ATPTR2Ap): uptake competition similar to that seen for Leu-Leu | competition for uptake of [3H]-dileucine [1]: uptake competition similar to that seen for Leu-Leu | growth on peptide (PB1X-9B (pPTF4); PBIX-9B (pPTF4), 80 μM peptide in SC medium, 30° C., 72 hrs): - | growth on / utilization of peptide (in words) (PB1X-9B (pPTF4); plant peptide transport gene (pPTF4)): able to utilize | growth on peptide (in words) (PB1X-9B (pJP9); PB1X-9B transformed with pJP9): showed growth on all peptides except | growth on peptide (PB1X-9B (pJP9); PBIX-9B (pJP9), 80 μM peptide in SC medium, 30° C., 72 hrs): - | utilization of peptide for growth (in words) (PB1X-2A): did not utilize | growth on peptide (PB1X-9B): -
